According to patent US10913738B2 (BRISTOL-MYERS SQUIBB COMPANY, priority 2017, dated 2021):
Like-named read-outs stand apart in the source and are kept apart here.

What was measured:
[1] = tested on: MLKL phosphorylation in HT29-L23 human colorectal adenocarcinoma cells; assay: MLKL Phosphorylation High-Content Assay; assay type: cell-based; conditions: Homo sapiens
How it was run: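 Cells incubated six hours at 37° C., then phospho-MLKL (S358) immunostained overnight at 4° C. and imaged by high-content microscopy. Phosphorylation quantified as mean circ-ring average intensity ratio; IC50 and Ymax from 4-parameter logistic fits.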

[2] = molecular target: T1, His-GST-TVMV-hRIPK1(1-324) (Homo sapiens, UniProt Q13546); assay: RIPK1 HTRF Binding Assay
T1 construct: The coding region of human RIPK1(1-324) flanked by NdeI site at 5′ end; made in house; host or cells: Spodoptera frugiperda (Sf9) insect cells, baculovirus
T1 sequence (Q13546 1-324): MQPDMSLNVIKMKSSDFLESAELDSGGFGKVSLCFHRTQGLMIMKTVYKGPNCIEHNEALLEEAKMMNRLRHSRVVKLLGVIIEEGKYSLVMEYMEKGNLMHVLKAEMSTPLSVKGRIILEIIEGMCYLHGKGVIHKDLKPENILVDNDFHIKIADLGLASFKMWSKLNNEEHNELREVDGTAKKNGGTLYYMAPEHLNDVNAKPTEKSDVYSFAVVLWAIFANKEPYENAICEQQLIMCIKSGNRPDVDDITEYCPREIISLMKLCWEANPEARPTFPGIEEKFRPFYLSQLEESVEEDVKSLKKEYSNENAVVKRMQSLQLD

[3] = x marks IC50 class <20 nM, read-out: pMLKL cell activity <20 nM
[4] = x marks IC50 class <20 nM, read-out: RIPK1 HTRF binding <20 nM
[5] = x marks IC50 class 20-200 nM, read-out: pMLKL cell activity 20-200 nM
[6] = x marks IC50 class >200 nM, read-out: pMLKL cell activity >200 nM
[7] = x marks IC50 class 20-200 nM, read-out: RIPK1 HTRF binding 20-200 nM

Row | Structure (SMILES) | IC50 [2, 4] | IC50 [1, 5] | other results
1 | Cc1ncc(-c2ccn3nc(N)nc3c2)cc1C(=O)NCc1c(F)cccc1OC1CCCC1 [Example 247, 5-{2-amino-[1,2,4]triazolo[1,5-a]pyridin-7-yl}-N-{[2-(cyclopentyloxy)-6-fluorophenyl]methyl}-2-methylpyridine-3-carboxamide] | < 20 nM | – | IC50 [1, 3]: < 20 nM
2 | Cc1ncc(-c2ccn3nc(N)nc3c2)cc1C(=O)NCc1ccccc1OCC1CCC1 [Example 248, 5-{2-amino-[1,2,4]triazolo[1,5-a]pyridin-7-yl}-N-{[2-(cyclobutylmethoxy)phenyl]methyl}-2-methylpyridine-3-carboxamide] | < 20 nM | – | IC50 [1, 3]: < 20 nM
3 | Cc1ncc(-c2ccn3nc(N)nc3c2)cc1C(=O)NCc1ccccc1OC1CCCC1 [Example 249, 5-{2-amino-[1,2,4]triazolo[1,5-a]pyridin-7-yl}-N-{[2-(cyclopentyloxy)phenyl]methyl}-2-methylpyridine-3-carboxamide] | < 20 nM | – | IC50 [1, 3]: < 20 nM
4 | Cc1ncc(-c2ccn3nc(N)nc3c2)cc1C(=O)NCc1ccccc1OCC1CC1 [Example 250, 5-{2-amino-[1,2,4]triazolo[1,5-a]pyridin-7-yl}-N-{[2-(cyclopropylmethoxy)phenyl]methyl}-2-methylpyridine-3-carboxamide] | < 20 nM | 20 to 200 nM | –
5 | [2H]C([2H])(NC(=O)c1cc(-c2ccn3nc(N)nc3c2)cnc1C)c1cc(OC(F)(F)F)ccc1F [Example 252, 5-{2-amino-[1,2,4]triazolo[1,5-a]pyridin-7-yl}-N-{[2-fluoro-5-(trifluoromethoxy)phenyl](deutero)methyl}-2-methylpyridine-3-carboxamide] | < 20 nM | – | IC50 [1, 3]: < 20 nM
6 | [2H]C([2H])(NC(=O)c1cc(-c2ccn3nc(N)nc3c2)cnc1C)c1cc(F)cc(F)c1OCC1CC1 [Example 253, 5-{2-amino-[1,2,4]triazolo[1,5-a]pyridin-7-yl}-N-{[2-(cyclopropylmethoxy)-3,5-difluorophenyl](deutero)methyl}-2-methylpyridine-3-carboxamide] | < 20 nM | – | IC50 [1, 3]: < 20 nM
7 | Cc1ncc(-c2ccn3nc(N)nc3c2)cc1C(=O)NCc1cc(C(F)(F)F)ccc1Cl [Example 254] | < 20 nM | 20 to 200 nM | –
8 | Cc1ncc(-c2ccn3nc(N)nc3c2)cc1C(=O)NC(C)c1cc(OC(F)(F)F)ccc1F (stereo not shown) [Example 255, 5-{2-amino-[1,2,4]triazolo[1,5-a]pyridin-7-yl}-N-{1-[2-fluoro-5-(trifluoromethoxy)phenyl]ethyl}-2-methylpyridine-3-carboxamide] | < 20 nM | 20 to 200 nM | –
9 | Cc1ncc(C(=O)NCc2cc(OC(F)(F)F)ccc2F)cc1-c1ccn2nc(N)nc2c1 [Example 256, 5-{2-amino-[1,2,4]triazolo[1,5-a]pyridin-7-yl}-N-{[2-fluoro-5-(trifluoromethoxy)phenyl]methyl}-6-methylpyridine-3-carboxamide] | – | – | IC50 [1, 6]: > 200 nM; IC50 [2, 7]: 20 to 200 nM
10 | Cc1ncc(C(=O)NCc2c(F)cc(F)cc2OCC2CCCC2)cc1-c1ccn2nc(N)nc2c1 [Example 257, 5-{2-amino-[1,2,4]triazolo[1,5-a]pyridin-7-yl}-N{[2-(cyclopentylmethoxy)-4,6-difluorophenyl]methyl}-6-methylpyridine-3-carboxamide] | – | – | IC50 [1, 6]: > 200 nM; IC50 [2, 7]: 20 to 200 nM
11 | Cc1ncc(C(=O)NCc2cccnc2OCC2CCCC2)cc1-c1ccn2nc(N)nc2c1 [Example 258, 5-{2-amino-[1,2,4]triazolo[1,5-a]pyridin-7-yl}-N-{[2-(cyclopentylmethoxy)pyridin-3-yl]methyl}-6-methylpyridine-3-carboxamide] | < 20 nM | – | IC50 [1, 6]: > 200 nM
12 | Cc1ncc(C(=O)NCc2cc(F)cc(F)c2OCC2CCCC2)cc1-c1ccn2nc(N)nc2c1 [Example 259, 5-{2-amino-[1,2,4]triazolo[1,5-a]pyridin-7-yl}-N-{[2-(cylcopentylmethoxy)-3,5-difluorophenyl]methyl}-6-methylpyridine-3-carboxamide] | < 20 nM | 20 to 200 nM | –
13 | Cc1ncc(C(=O)NCc2cc(F)cc(F)c2OCC2CC2)cc1-c1ccn2nc(N)nc2c1 [Example 260, 5-{2-amino-[1,2,4]triazolo[1,5-a]pyridin-7-yl}-N-{[2-(cyclopropylmethoxy)-3,5-difluorophenyl]methyl}-6-methylpyridine-3-carboxamide] | < 20 nM | – | IC50 [1, 3]: < 20 nM
14 | Cc1ncc(C(=O)NCc2cccnc2OCC2CCC2)cc1-c1ccn2nc(N)nc2c1 [Example 261, 5-{2-amino-[1,2,4]triazolo[1,5-a]pyridin-7-yl}-N-{[2-(cyclobutylmethoxy)pyridin-3-yl]methyl}-6-methylpyridine-3-carboxamide] | – | – | IC50 [1, 6]: > 200 nM; IC50 [2, 7]: 20 to 200 nM
15 | Cc1ncc(C(=O)NCc2cc(F)ccc2OCC2CCCC2)cc1-c1ccn2nc(N)nc2c1 [Example 262, 5-{2-amino-[1,2,4]triazolo[1,5-a]pyridin-7-yl}-N-{[2-(cyclopentylmethoxy)-5-fluorophenyl]methyl}-6-methylpyridine-3-carboxamide] | < 20 nM | 20 to 200 nM | –
16 | Cc1ncc(C(=O)NCc2ccccc2OCC2CCCC2)cc1-c1ccn2nc(N)nc2c1 [Example 263, 5-{2-amino-[1,2,4]triazolo[1,5-a]pyridin-7-yl}-N-{[2-(cyclopentylmethoxy)phenyl]methyl}-6-methylpyridine-3-carboxamide] | < 20 nM | 20 to 200 nM | –
17 | CCOc1ncc(-c2ccn3nc(N)nc3c2)cc1C(=O)NCc1cc(F)ccc1OC1CCCC1 [Example 264, 5-{2-amino-[1,2,4]triazolo[1,5-a]pyridin-7-yl}-N-{[2-(cyclopentyloxy)-5-fluorophenyl]methyl}-2-ethoxypyridine-3-carboxamide] | < 20 nM | – | IC50 [1, 3]: < 20 nM
18 | CCOc1ncc(-c2ccn3nc(N)nc3c2)cc1C(=O)NCc1ccccc1SCC(F)(F)F [Example 265, 5-{2-amino-[1,2,4]triazolo[1,5-a]pyridin-7-yl}-2-ethoxy-N-({2-[(2,2,2-trifluoroethyl)sulfanyl]phenyl}methyl)pyridine-3-carboxamide] | – | – | IC50 [1, 6]: > 200 nM; IC50 [2, 7]: 20 to 200 nM
19 | CCOc1ncc(-c2ccn3nc(N)nc3c2)cc1C(=O)NCc1ccccc1SC(C)C [Example 266, 5-{2-amino-[1,2,4]triazolo[1,5-a]pyridin-7-yl}-2-ethoxy-N-{[2-(propan-2-ylsulfanyl)phenyl]methyl}pyridine-3-carboxamide] | < 20 nM | 20 to 200 nM | –
20 | CCOc1ncc(-c2ccn3nc(N)nc3c2)cc1C(=O)NCc1ccccc1OC1CCCC1 [Example 267, 5-{2-amino-[1,2,4]triazolo[1,5-a]pyridin-7-yl}-N-{[2-(cyclopentyloxy)phenyl]methyl}-2-ethoxypyridine-3-carboxamide] | < 20 nM | 20 to 200 nM | –
21 | CCOc1ncc(-c2ccn3nc(N)nc3c2)cc1C(=O)NCc1ccccc1OCC1CCC1 [Example 268, 5-{2-amino-[1,2,4]triazolo[1,5-a]pyridin-7-yl}-N-{[2-(cyclobutylmethoxy)phenyl]methyl}-2-ethoxypyridine-3-carboxamide] | < 20 nM | 20 to 200 nM | –
22 | CCOc1ncc(-c2ccn3nc(N)nc3c2)cc1C(=O)NCCc1ccccc1Oc1ccccc1 [Example 269, 5-{2-amino-[1,2,4]triazolo[1,5-a]pyridin-7-yl}-2-ethoxy-N-[2-(2-phenoxyphenyl)ethyl]pyridine-3-carboxamide] | < 20 nM | 20 to 200 nM | –
23 | CCOc1ncc(-c2ccn3nc(N)nc3c2)cc1C(=O)NCc1ccccc1S(=O)(=O)c1ccccc1CO [Example 270, 5-{2-amino-[1,2,4]triazolo[1,5-a]pyridin-7-yl}-2-ethoxy-N-({2-[2-(hydroxymethyl)benzenesulfonyl]phenyl}methyl)pyridine-3-carboxamide] | < 20 nM | 20 to 200 nM | –
24 | CCOc1ncc(-c2ccn3nc(N)nc3c2)cc1C(=O)NCc1ccccc1OC(F)F [Example 271, 5-{2-amino-[1,2,4]triazolo[1,5-a]pyridin-7-yl}-N-{[2-(difluoromethoxy)phenyl]methyl}-2-ethoxypyridine-3-carboxamide] | – | – | IC50 [1, 6]: > 200 nM; IC50 [2, 7]: 20 to 200 nM
25 | CCOc1ncc(-c2ccn3nc(N)nc3c2)cc1C(=O)NCc1ccccc1OCC1CC1 [Example 272, 5-{2-amino-[1,2,4]triazolo[1,5-a]pyridin-7-yl}-N-{[2-(cyclopropylmethoxy)phenyl]methyl}-2-ethoxypyridine-3-carboxamide] | < 20 nM | 20 to 200 nM | –
26 | CCOc1ncc(-c2ccn3nc(N)nc3c2)cc1C(=O)NC[C@H]1C[C@@H]1COc1ccc(Br)cc1F [Example 273, 5-{2-amino-[1,2,4]triazolo[1,5-a]pyridin-7-yl}-N-{[(1S,2S)-2-[(4-bromo-2-fluorophenoxy)methyl]cyclopropyl]methyl}-2-ethoxypyridine-3-carboxamide] | – | 20 to 200 nM | IC50 ([2]; x marks IC50 class >200 nM, read-out: RIPK1 HTRF binding >200 nM): > 200 nM
